Source: patent US4397842A, “Peptides having thymopoietin-like activity” (Ortho Pharmaceutical Corporation, priority 1981, dated 1983)
Non-standard residues stand in square brackets, D forms with d. Residues, ends and D or L forms follow the SMILES beside them. Sar = CNCC(=O)O

What was measured:
CR^- B cell precursors = assay: induction in vitro of CR+ B cell differentiation from CR- B cell precursors; format: cell-based, nu/nu mice; details: same concentrations as for T cell induction
Procedure: (§1) To determine the activity and characteristics of the polypeptide of Example I, determinations were carried out on healthy 5-6 week nu/nu mice of both sexes, the mice being bred on a BALB/c background (thymocytes expressing Thy-1.2 surface antigen) and maintained under conventional conditions. For the antisera, anti Thy-1.2 sera were prepared in Thy-1 congenic mice.
(§2) For the induction in vitro of Thy-1^+ T cells or CR^+ B cell differentiation, the induction of thymocyte differentiation from prothymocytes in vitro was performed as described by Komuro and Boyse, (Lancet, 1, 740, 1973), using the acquisition of Thy-1.2 as a marker of T cell differentation. The induction of CR^+ B cell differentiation from CR^- B cell precursors in vitro was performed under similar conditions using as the assay criterion, the capacity of CR^+ B cells to bind sheep erythrocytes coated with subagglutinating quantities of rabbit antibody and nonlytic complement. Spleen cell populations from healthy nu/nu mice fractionated on discontinuous bovine serum albumin gradients were used as the source of both precursor types (Thy-1^- and CR^-) because they have few or no Thy-1^+ cells and low numbers of CR^+ cells.

prothymocytes = assay: induction in vitro of Thy-1+ T cell differentiation (Komuro and Boyse), acquisition of Thy-1.2 as marker; format: cell-based, nu/nu mice; details: for biological activity compared with the pentapeptide prepared in Example I: qualitative statement
Procedure: as §1, §2

Q: For CC(C)[C@H](NC(=O)[C@H](CC(=O)O)NC(=O)CN(C)C(=O)[C@@H](N)CCCNC(=N)N)C(=O)N[C@@H](Cc1ccc(O)cc1)C(=O)O [Example I, H--ARG--SAR--ASP--VAL--TYR--OH] (H-R[Sar]DVY-OH), which “induction of differentiation of CR+ B cells” value (CR^- B cell precursors) is on record?
A: did not induce

Q: Which “biological activity compared with the pentapeptide prepared in Example I” value (prothymocytes) does the source give for CN(CC(=O)N[C@@H](Cc1ccc(O)cc1)C(=O)O)C(=O)[C@H](CC(=O)O)NC(=O)[C@H](CCCCN)NC(=O)[C@@H](N)CCCNC(=N)N [Example IVC, H--ARG--LYS--ASP--SAR--TYR--OH] (H-RKD[Sar]Y-OH) here?
A: same biological activity

Q: For CC(C)[C@H](NC(=O)[C@H](CC(=O)O)NC(=O)[C@@H](C)NC(=O)[C@@H](N)CCCNC(=N)N)C(=O)N[C@@H](Cc1ccc(O)cc1)C(=O)O [III, H--ARG--D--ALA--ASP--VAL--TYR--OH] (H-R[dA]DVY-OH), which “biological activity compared with the pentapeptide prepared in Example I” value (prothymocytes) is on record?
A: same biological activity

Q: With CN(CC(=O)N[C@@H](Cc1ccc(O)cc1)C(=O)O)C(=O)[C@H](CC(=O)O)NC(=O)CN(C)C(=O)[C@@H](N)CCCNC(=N)N [IVA, H--ARG--SAR--ASP--SAR--TYR--OH] (H-R[Sar]D[Sar]Y-OH) as the compound, how does the “biological activity compared with the pentapeptide prepared in Example I” value (prothymocytes) read?
A: same biological activity

Q: For CN(CC(=O)N[C@@H](Cc1ccc(O)cc1)C(N)=O)C(=O)[C@H](CC(=O)O)NC(=O)CN(C)C(=O)[C@@H](N)CCCNC(=N)N [IVB, H--ARG--SAR--ASP--SAR--TYR--NH2] (H-R[Sar]D[Sar]Y-NH2), which “concentration at which peptide is active” value (prothymocytes; assay of Example II) is on record?
A: 0.1 pg/mL

Q: What about the “biological activity compared with the pentapeptide prepared in Example I” value (prothymocytes) of the same compound?
A: same biological activity
